Measured values from patent US20220145406A1, “BIOMARKERS, AND USES IN TREATMENT OF VIRAL INFECTIONS, INFLAMMATIONS, OR CANCER” (ABIVAX, priority 2018, published 2022).

Test system: CD4+ T cells
Assay: RNAseq differential alternative splicing analysis (SUPPA) of cellular genes
Type: cell-based, human
Design: key to differential splicing Event type, gene ZNF177 / differential splicing Event type, gene FGF22 / differential splicing Event type, gene AL157955.2 / differential splicing Event type, gene TMEM147 / differential splicing Event type, gene ATIC / differential splicing Event type, gene CDRT15 / differential splicing Event type, gene WDR72 / differential splicing Event type, gene GNRHR2 / differential splicing Event type, gene ZNE584 / differential splicing Event type, gene LINC01869 / differential splicing Event type, gene LINC01119: Alternative 5′ splice site (A5); Alternative 3′ splice site (A3); Alt exons: Alternative first and last exons (Altexons); Retained intron (RI)
Description: Buffy coats from HIV-negative individuals were obtained from the local blood donation center in Centre de transfusion sanguine Montpellier. Human peripheral blood mononuclear cells (PBMCs) were isolated by Ficoll (Histopaque, Sigma) gradient centrifugation. CD4+ and CD8+ T cells were purified from PBMCs after Ficoll gradient centrifugation by Human CD4+ beads positive selection and CD8+ beads positive selection, respectively (Miltenyi). PBMCs, CD4+ and CD8+ T cells were grown at 37° C. and 5% CO2 to a density of 1.5×10^6 cells/ml in RPMI GlutaMAX medium (Life Technologies) supplemented with 10% fetal calf serum (FCS) (Thermo Fisher), 40 U/ml of IL2 (PeproTech) and 5 μg/mL of PHA (Roche) for 2 days. Three days later, cells were resuspended at 1.5×10^6 cells/ml in RPMI supplemented with 10% FCS and 40 U/ml IL2 and separated into two parts (infected and uninfected cells). Cells were infected with 80 ng of p24/106 cells of the YU-2 strain for 4 to 6 hours and then rinsed with PBS before medium renewal.
Both infected and uninfected cells were then centrifuged and resuspended to a density of 1.5×10^6 cells/ml in medium supplemented with diluted drug solubilized in DMSO (Sigma) to a final 0.05% DMSO concentration or antiretroviral compounds according to the manufacturer's instructions. Cells were treated for 6 days with a medium renewal at day 3. HIV p24 titration was performed by ELISA from cell culture supernatants with Innotest kit (Ingen) according to the manufacturer's instructions.
A full-detailed report describing the complete analysis was submitted to Gene Expression Omnibus (GEO, https://www.ncbi.nlm.nih.gov/geo/query/acc.cgi?acc=GSE116073). Total RNA extraction was performed according to the Qiagen miRNeasy □ kit. RNA concentrations were determined using Qubit[…] fluorometric quantification and purity by the RNA 6000 Bioanalyzer kit (Agilent). RNA-Seq libraries were constructed with the TruSeq stranded mRNA sample preparation (low-throughput protocol) kit from Illumina, according to the manufacturer's instructions. Aliquots of 1.2 μg of total RNA were used for the construction of the libraries. The final cDNA libraries were validated with a Fragment Analyzer (Advanced Analytical, Ankeny, Iowa) and quantified with a KAPA qPCR kit (Kapa Biosystems, Wilmington, Mass.). On the 8 sequencing lanes of a flow cell V4, the 32 libraries were pooled in equal proportions by sets of 4 libraries per lane, denatured with NaOH and diluted to […] before clustering. Cluster formation and primer hybridization and single-end read, 50-cycle sequencing were performed on the cBot and HiSeq 2500 (Illumina, San Diego, Calif.), respectively. Image analysis and base calling were performed using the HiSeq Control Software with the Real-Time Analysis component. Demultiplexing was performed using Illumina's sequencing analysis software. The quality of the data was assessed using FastQC from the Babraham Institute and the Illumina software SAV (Sequence Analysis Viewer). Potential contaminants were investigated with the FastQ Screen software from the Babraham Institute.
To investigate splicing activity we used SUPPA v2.0.0, a tool developed in Python 3.4 and especially designed for this approach. To study splicing across multiple conditions, we performed three modular operations that were run separately. The first step was to generate events from the annotation file commonly named the GTF file (general […]). The second step was to quantify event inclusion levels (PSIs) from our samples. Finally, differential splicing across multiple conditions was calculated for all replicates.
To generate the different alternative splicing events from an input annotation file (GTF format), the method reads transcript and gene information solely from the “exon” lines in the GTF. It then generates the events and outputs an ‘ioe’ file, which contains the relationship between each event and the transcripts that share this particular event. […]

[1] = ABX464_NI_VS_DMSO_NI, uninfected CD4 T cells

FC(F)(F)Oc1ccc(Nc2ccc3cccc(Cl)c3n2)cc1 [ABX464, 8-chloro-N-(4-(trifluoromethoxy)phenyl)quinolin-2-amine]
differential splicing Event type, gene AL157955.2 [1]: A3 | differential splicing Event type, gene ATIC [1]: A5 | differential splicing Event type, gene CDRT15 [1]: A5 | differential splicing Event type, gene FGF22 [1]: A3 | differential splicing Event type, gene GNRHR2 [1]: RI | differential splicing Event type, gene LINC01119 [1]: A3 | differential splicing Event type, gene LINC01869 [1]: A3 | differential splicing Event type, gene TMEM147 [1]: RI | differential splicing Event type, gene WDR72 [1]: A5 | differential splicing Event type, gene ZNE584 [1]: A3 | differential splicing Event type, gene ZNF177 [1]: A3 | number of common and differential splicing events (infected and uninfected CD4+ T cells treated with ABX464, ΔPSI >0.4, p <0.05): < 10 events
